In patent US20250186446A1, “ORGANIC COMPOUNDS” (INTRA-CELLULAR THERAPIES, INC., priority 2022, published 2025):

Key:
Type in all cases: in vivo, mouse
[1] = LC/MS/MS quantification of drug exposure in E0771 tumor-bearing mice
Experimental: (§1) Tumor, liver, and feces samples are diluted in phosphate buffer and homogenized using ultrasonic processor. Plasma and homogenized tissue samples along with a set of standard and quality control samples are extracted by way of protein precipitation technique on Ostro plate (Waters) using 1% formic acid in acetonitrile spiked with internal standard. 2 μL of the filtered samples are injected using an autosampler and separated chromatographically using a Phenomenex, Synergi™, […], 50×3 mm, Polar-RP column, isocratic mobile phase combination of 0.1% formic acid in water and 0.1% formic acid in acetonitrile (40/60) with flow rate of 0.8 mL/min. The Sciex Qtrap 6500 mass spectrometer is used as the detector with positive electrospray in MRM ionization mode and an ion source temperature of 650° C. Quantification of Compound A is carried out using a calibration curve established with standards for the corresponding analyte concentration, retention time and mass profile.
Tumor, liver, and feces samples are diluted in phosphate buffer and homogenized using ultrasonic processor. […] Quantification of Compound B is carried out using a calibration curve established with standards for the corresponding analyte concentration, retention time and mass profile.

[2] = test system: E0771 murine breast cancer cells; test: E0771 syngeneic breast cancer tumor growth in mice; settings: E0771 tumors
Experimental: E0771 murine breast cancer cells are obtained from the American Type Culture Collection (ATCC) and maintained in DMEM medium containing 10% fetal bovine serum, 4 mM glutamine, 20 mM HEPES, and 1% penicillin/streptomycin. The cells are cultured in tissue culture flasks in a humidified incubator at 37° C., in an atmosphere of 5% CO2 and 95% air. The E0771 tumor cells used for implantation are harvested and re-suspended at a concentration of 2.5×10^6 cells/mL in cold PBS. Nine weeks old female C57Bl/6 mice (C57Bl/6J, Jackson Laboratory) are injected subcutaneously in the right flank with 0.5×10^6 cells in 0.2 mL cold PBS. 10 days later the mice have a palpable size tumor, and specified size to start treatments (around 100 mm^3). Mice are randomized in groups after the tumors are measured with a caliper in two dimensions to monitor size. Tumor size is calculated using the formula: Tumor Volume (mm^3)=(w^2×1)/2 where w=width and l=length, in mm. Tumors are measured twice per week for the duration of the study. Each mouse is euthanized as it reached a tumor volume endpoint of 1500 mm^3 or if they show any type of discomfort, whichever comes first.
[…] Compound A is synthesized at Intra-Cellular Therapies Inc. Compound A diets are used to treat mice. Compound A diet 900 ppm (diet supplements 900 mg of Compound A per kg to Picolab Rodent Diet 5053) is produced by Envigo (Madison WI). Mice are dosed 5 days a week with vehicle or Compound A.
(§2) The anti-PD-1 RMP1-14 (Lot No. 800121F12A) and isotype (Lot No. 749620N1) antibody are purchased from BioXCell. The stock solution is diluted in PBS to yield a dosing solution of 0.1 or 1 mg/mL, which delivered 1 or 10 mg/kg respectively in a dosing volume of 0.2 mL (10 mL/kg, for a […]). Mice are administered isotype or anti-PD-1 RMP1-14 intraperitoneally in 0.2 mL (10 mL/kg, for a […]) twice a week.
Mice are treated with Compound B alone, anti-PD-1 antibody alone, or the combination of Compound B and anti-PD-1 antibody. Compound B is synthesized at Intra-Cellular Therapies Inc. Compound B diets are used to treat mice. […]

[3] = test system: 4T1 murine breast cancer cells; test: 4T1 syngeneic breast cancer tumor growth and survival in mice; settings: 4T1 tumors
Experimental: (§3) 4T1 murine breast cancer cells are obtained from the American Type Culture Collection (ATCC) and maintained in RPMI medium containing 10% fetal bovine serum, 4 mM glutamine, and 1% penicillin/streptomycin. The cells were cultured in tissue culture flasks in a humidified incubator at 37° C., in an atmosphere of 5% CO2 and 95% air. The 4T1 tumor cells used for implantation are harvested and re-suspended at a concentration of 50×10^3 cells/mL in cold PBS. Nine weeks old female Balb/c mice (Balb/cJ, Jackson Laboratory) are injected subcutaneously in the right flank with 10×10^3 cells in 0.2 mL cold PBS. […] Mice are randomized in groups after the tumors are measured with a caliper in two dimensions to monitor size. Tumor size is calculated using the formula: Tumor Volume (mm^3)=(w^2×1)/2 where w=width and l=length, in mm. Tumors are measured twice per week for the duration of the study. Each mouse is euthanized as it reached a tumor volume endpoint of 1500 mm^3 or if they show any type of discomfort, whichever comes first.
as §2
as §3, with “(mm^3) (w^2×1)/2” for “(mm^3)=(w^2×1)/2”

[4] = LC/MS/MS quantification of drug exposure in 4T1 tumor-bearing mice; settings: in absence or presence of anti-PD1
Experimental: as §1

[5] = Example 2, Compound A 300 ppm or 900 ppm in diet, monotherapy or with anti-PD1 10 mg/kg

Row | SMILES | drug exposures in plasma, tissues, and feces ([1]; Example 1, Compound A 900 ppm in diet, all groups receiving Compound A) | tumor volume ([2]; Example 1, C57Bl/6 mice, Compound A 900 ppm in diet, anti-PD1 10 mg/kg ip, alone or combined, day 3, 7, 10, 14, 17, vs isotype control) | tumor weight at terminal sacrifice ([2]; Example 1, Compound A 900 ppm in diet, anti-PD1 10 mg/kg, alone or combined, treatment day 17, vs isotype control) | survival of animals [3, 5] | tumor volume or weight relative to isotype (control) [3, 5] | exposure in plasma and tissues ([4]; Example 2, Compound A in diet) | exposure in plasma and tissues ([1]; Example 3, Compound B in diet, in absence or presence of anti-PD1) | tumor volume or weight relative to isotype (control) and/or anti-PD1 alone ([2]; Example 3, Compound B 100, 300 or 900 ppm in diet, monotherapy or with anti-PD1 1 mg/kg) | tumor volume ([3]; Example 4, Compound B 100, 300 or 900 ppm in diet, anti-PD1 10 mg/kg, alone or combined, anti-PD1 alone: after day 5, vs isotype and/or anti-PD1 alone) | tumor weight at terminal sacrifice ([3]; Example 4, Compound B 100, 300 or 900 ppm in diet, anti-PD1 10 mg/kg, alone or combined, treatment day 14, vs isotype and/or anti-PD1 alone) | exposure in plasma and tissues ([4]; Example 4, Compound B in diet)
1 | CN1C(=O)c2c(nn(Cc3ccc(-c4cccc(F)n4)cc3)c2Nc2ccccc2)N2C1=N[C@@H]1CCC[C@@H]12 [Compound A] | comparable | Neither Compound A (900 ppm) treatment alone nor anti-PD-1 antibody (10 mg/kg) treatment alone shows a significant effect | Neither Compound A (900 ppm) treatment alone nor anti-PD-1 antibody (10 mg/kg) treatment alone shows a significant effect | improved | significantly reduce | comparable | – | – | – | – | –
2 | CC(=O)c1ccc(Cn2nc3c(c2Nc2ccc(F)cc2)C(=O)N(C)C2=NC(C)(C)CN23)cc1 [Compound B] | – | – | – | – | – | – | comparable | significantly reduces | significantly reduces | significantly reduces | comparable
